{
  "source": "patent US10206989B2",
  "about": "“CDCA1 epitope peptides for Th1 cells and vaccines containing the same” (OncoTherapy Science, Inc., priority 2012, dated 2019)",
  "assay_type_in_all_cases": "cell-based, human",
  "key": {"Th cell clones": {"system": "Th cell clones", "experiment": "Recognition of CDCA1 protein-loaded autologous DCs by Th clones (natural processing), IFN-gamma ELISPOT", "conditions": "DCs loaded with recombinant CDCA1 protein 50 micro g/ml", "description": "The 6His-tagged recombinant whole CDCA1 proteins and truncated CDCA1 proteins that lack both CDCA1-derived Th epitopes recognized by CDCA1 (55-78) and CDCA1 (39-64)-specific Th cells were expressed by E. coli BL21 strains with a pET28a vector (Novagen) that has respective cDNA fragments. The truncated CDCA1 protein was used as control protein. Each recombinant protein was purified using a HisTrap FF column (GE Healthcare) according to the manufacturer's instruction. The purity of the proteins was verified by SDS-PAGE.\nThe immune response of Th cells to APCs pulsed with peptides and proteins were assessed by IFN-gamma ELISPOT assays (Human IFN-gamma ELISPOT kit, BD Biosciences) as described previously (Tomita Y et al. Cancer Sci.; 102: 697-705.). Briefly, the frequency of peptide-specific CD4^+ T cells producing interferon (IFN)-gamma per 3×10^4 bulk CD4^+ T cells upon stimulation with peptide-pulsed PBMCs (3×10^4/well), or 1×10^4 bulk CD4^+ T cells upon stimulation with peptide-pulsed HLA-DR-expressing L-cells (5×10^4/well) was analyzed. The frequency of cells producing interferon (IFN)-gamma per 1×10^5 CTLs upon stimulation with peptide-pulsed T2 cells (2×10^4/well) was also analyzed. Alternatively, 5×10^3 protein-loaded DCs were co-cultured with 2×10^4 CD4^+ T cell clones/well. […]"}, "[1]": {"system": "CDCA1-A24 (56-64)-specific CTLs", "experiment": "In vitro cross-presentation assay with unfixed or fixed DCs, intracellular IFN-gamma", "conditions": "cross presented by unfixed DCs (DC+LP); peptide 16 micro M, 3 h pulse", "method": "An HLA-A24^+ donor (HD2)-derived DCs were kept alive or fixed for 3 min in 0.1% glutaraldehyde (Sigma-Aldrich), pulsed with peptides (16 micro M) for 3 h, and washed 3 times. OK432 (0.1 KE/mL, Chugai Pharmaceutical Co, Tokyo, Japan) was added to induce the maturation of DCs during and after the peptide pulse. CDCA1-A24 (56-64)-reactive bulk CTLs were added at a 2:1 ratio for 6 h in medium containing 10 micro g/mL brefeldin A (Sigma-Aldrich). The brefeldin A was added to inhibit protein secretion during the stimulation. IFN-gamma production by the CDCA1-A24 (56-64)-specific CTLs was measured by intracellular labeling. The cells were stained with a FITC-labeled anti-human IFN-gamma mAb (BioLegend) in combination with a PerCP-labeled anti-human CD8 mAb (BioLegend) and a PE-labeled CDCA1-A24 (56-64)-specific tetramer. Data acquisition was performed on a FACSCalibur (BD Biosciences) and data files were analyzed with FlowJo software (Tree Star, Ashland, Oreg.)."}, "PBMCs (Th cells)": {"system": "PBMCs (Th cells)", "experiment": "CDCA1-LP specific CD4+ T-cell responses in PBMCs of HNC patients and healthy donors, IFN-gamma ELISPOT", "method": "In the ELISPOT assays for HNC patients, after 1 week of cell culture with CDCA1-LPs, the cells were collected, washed, and cultured in ELISPOT plates (1×10^5/well) with CDCA1 (55-78)-LP, CDCA1 (39-64)-LP, or control LP (HIV-LP) for 18 h. The number of CDCA1-LP-specific Th cells expressed as spot-forming cells/10^5 cells was calculated after subtracting control values (background). Responses were scored as positive when the mean number of IFN-gamma spots numbered more than 15 and more than 2-fold over background. The ELISPOT assays on HNC patients' cells were conducted in single, duplicate, or triplicate wells because of the limited number of available cells.\nThe PBMCs from the heparinized blood of HNC patients were isolated by means of Ficoll-Conray density gradient centrifugation. Fresh PBMCs from HNC patients or healthy donors were cultured with a mixture of CDCA1 (39-64)-LP and CDCA1 (55-78)-LP (10 micro g/mL each) in a final volume of 2 ml AIM-V supplemented with 5% human decomplemented plasma at 37 degrees C. (2×10^6/well, 24-well plates); IL-2 and IL-7 were added on day 0 and day 2. After 1 week of cell culture, the number of antigen-specific IFN-gamma producing T-cells was counted by ELISPOT assay. This study was conducted in a laboratory that operates under exploratory research principles, and was performed using investigative protocols. The inventors acknowledge the recommendations of the Minimal Information About T-cell Assay (MIATA) reporting framework for human T-cell assays (Britten C M et al., Immunity 2012; 37:1-2.)."}, "[2]": {"conditions": "HNC patients after vaccination with CDCA1-A24 (56-64) SP"}},
  "data": [
    {"sequence": "NPKPEVLHMIYMRALQIVYGIRLEHF [CDCA1 (39-64)]", "values": [
      {"measurement": "Natural processing of the Th cell epitope by DC from CDCA1-protein", "setting": "Th cell clones", "value": "naturally processed"},
      {"measurement": "IFN-gamma secreting tetramer+ CD8+ T-cells", "setting": "[1]", "value": "significant proportion"},
      {"measurement": "Patients with CDCA1-LP-specific Th cell responses (number)", "setting": "PBMCs (Th cells); [2]", "value": "12 of 16"},
      {"measurement": "Patients with CDCA1-LP-specific Th cell responses (proportion)", "setting": "PBMCs (Th cells); [2]", "value": 75, "unit": "%"},
      {"measurement": "HNC patients with CDCA1-LP-specific immune responses (number)", "setting": "PBMCs (Th cells); all HNC patients", "value": "14 of 19"},
      {"measurement": "HNC patients with CDCA1-LP-specific immune responses (proportion)", "setting": "PBMCs (Th cells); all HNC patients", "value": 74, "unit": "%"},
      {"measurement": "Patients with detectable CDCA1-LP-specific Th cell responses (number)", "setting": "PBMCs (Th cells); patients before vaccination", "value": "2 of 7"},
      {"measurement": "Patients with detectable CDCA1-LP-specific Th cell responses (proportion)", "setting": "PBMCs (Th cells); patients before vaccination", "value": 29, "unit": "%"}
    ]}
  ]
}
